For five compounds, IC50 results are on record in BindingDB's records for doi:10.7270/Q2SX6GDH (n/a, 1996).

The target of assay [1] is T1, 5-hydroxytryptamine receptor 1D (Sus scrofa, UniProt P79400). Kind of assay: (§1) Compound was tested for its ability to displace [3H]-5-HT binding to 5-hydroxytryptamine 1D receptor recognition sites in pig caudate membranes.
In assay [2] the target is T1, 5-hydroxytryptamine receptor 1D. Kind of assay: ChEBML_1955. The method, then:
as §1

Assay [3] has as its target 5-hydroxytryptamine receptor 2A (Rattus norvegicus, UniProt P14842). Kind of assay: ChEBML_2582. The method, then:
Compound was tested for its ability to displace [3H]DOB from 5-hydroxytryptamine 2A receptor in rat cortex homogenates

Assay [4] addresses T2, 5-hydroxytryptamine receptor 3A/3B (Rattus norvegicus, UniProt P35563+Q9JJ16).
T2 sequence (P35563 whole entry): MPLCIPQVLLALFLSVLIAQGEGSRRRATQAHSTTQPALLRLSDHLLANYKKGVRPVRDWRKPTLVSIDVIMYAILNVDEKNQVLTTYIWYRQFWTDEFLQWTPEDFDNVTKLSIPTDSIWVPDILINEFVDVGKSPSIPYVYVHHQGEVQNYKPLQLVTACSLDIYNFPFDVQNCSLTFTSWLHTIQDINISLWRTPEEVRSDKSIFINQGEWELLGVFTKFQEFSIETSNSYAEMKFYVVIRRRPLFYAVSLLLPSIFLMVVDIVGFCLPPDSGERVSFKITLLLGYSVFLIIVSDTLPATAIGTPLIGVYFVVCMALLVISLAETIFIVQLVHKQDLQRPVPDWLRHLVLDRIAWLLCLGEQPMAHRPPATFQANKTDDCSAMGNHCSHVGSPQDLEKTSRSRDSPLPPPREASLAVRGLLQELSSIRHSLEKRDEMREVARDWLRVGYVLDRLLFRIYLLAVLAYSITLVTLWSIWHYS
T2 sequence (Q9JJ16 whole entry): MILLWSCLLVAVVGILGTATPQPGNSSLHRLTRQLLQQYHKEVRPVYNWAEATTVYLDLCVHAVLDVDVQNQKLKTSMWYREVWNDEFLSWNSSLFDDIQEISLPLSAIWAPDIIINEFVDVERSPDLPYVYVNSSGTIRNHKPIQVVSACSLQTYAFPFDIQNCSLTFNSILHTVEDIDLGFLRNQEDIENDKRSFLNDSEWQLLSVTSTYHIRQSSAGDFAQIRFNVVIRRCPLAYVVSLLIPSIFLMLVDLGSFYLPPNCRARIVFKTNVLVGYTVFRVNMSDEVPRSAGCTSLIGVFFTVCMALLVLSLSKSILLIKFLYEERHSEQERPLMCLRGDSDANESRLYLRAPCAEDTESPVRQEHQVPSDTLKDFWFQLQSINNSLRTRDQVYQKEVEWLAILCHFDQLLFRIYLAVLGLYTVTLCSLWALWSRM
Kind of assay: (§2) Compound was tested for its ability to displace [3H]-Q-ICS 205-930 from 5-hydroxytryptamine 3 receptor in rat cortex homogenates.

The nature of assay [5]: Compound was tested for its ability to displace [3H]8-OH-DPAT from 5-hydroxytryptamine 1A receptor in pig cortex.
Assay [6] can be described thus: Compound was tested for its ability to displace [3H]mesulergine from 5-hydroxytryptamine 2C receptor in pig cortex.
Assay [7] can be described thus: Compound was tested for its ability to displace [3H]-5-HT binding to 5-hydroxytryptamine 1D receptor recognition sites in pig caudate membranes.
Assay [8] addresses T2, 5-hydroxytryptamine receptor 3A/3B. Kind of assay: ChEBML_3165. The method, then: as §2
For assay [9], the target named is T1, 5-hydroxytryptamine receptor 1D. Kind of assay: Compound was tested for its ability to displace [125I]GTI binding to 5-hydroxytryptamine 1D receptor recognition sites in pig caudate membranes.

Structures are written as SMILES. Where only a bound is given, the exact number is not on record here.

T1 sequence (P79400 whole entry): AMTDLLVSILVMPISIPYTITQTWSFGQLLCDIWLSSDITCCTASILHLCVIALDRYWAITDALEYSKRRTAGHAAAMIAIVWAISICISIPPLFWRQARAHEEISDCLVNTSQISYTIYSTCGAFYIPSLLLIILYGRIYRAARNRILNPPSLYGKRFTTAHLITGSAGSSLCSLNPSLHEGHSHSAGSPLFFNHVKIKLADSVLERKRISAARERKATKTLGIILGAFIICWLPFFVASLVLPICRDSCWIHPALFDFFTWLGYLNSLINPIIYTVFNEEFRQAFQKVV
5-hydroxytryptamine receptor 2A, sequence (P14842 whole entry): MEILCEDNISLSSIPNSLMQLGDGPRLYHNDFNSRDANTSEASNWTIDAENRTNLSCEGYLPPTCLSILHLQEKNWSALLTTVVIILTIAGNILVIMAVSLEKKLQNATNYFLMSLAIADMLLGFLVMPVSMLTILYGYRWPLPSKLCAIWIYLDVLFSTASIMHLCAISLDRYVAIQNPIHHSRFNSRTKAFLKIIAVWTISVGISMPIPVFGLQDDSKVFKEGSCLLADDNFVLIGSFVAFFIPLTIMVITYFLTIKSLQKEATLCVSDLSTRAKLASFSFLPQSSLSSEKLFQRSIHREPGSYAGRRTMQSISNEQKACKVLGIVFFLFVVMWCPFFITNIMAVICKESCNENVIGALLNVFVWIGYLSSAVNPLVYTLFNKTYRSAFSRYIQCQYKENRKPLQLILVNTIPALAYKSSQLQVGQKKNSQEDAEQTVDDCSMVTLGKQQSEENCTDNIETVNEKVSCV

For `CN1CCC(c2c[nH]c3ccc(-n4cnnc4)cc23)CC1`, the IC50 (in general, the concentration needed to halve the response being measured) is 8 nM in assay [1], 1.2 nM in [2], above 10000 nM in [3] and 2700 nM in assay [4].

In the case of `CN(C)CCc1c[nH]c2ccc(-n3cncn3)cc12`, the figures for the IC50 in [5], in [6] and in assay [7] were 25 nM, 500 nM and 20 nM, respectively.

Regarding `CN(C)CCc1c[nH]c2ccc(-n3cnnc3)cc12` [Dimethyl-[2-(5-[1,2,4]triazol-4-yl-1H-indol-3-yl)-ethyl]-amine], the IC50 in assay [1] was 2 nM; in [2] it was 0.43 nM; in assay [3], above 10000 nM; in assay [8] it was above 10000 nM.

In the case of `CN(C)CCc1c[nH]c2ccc(Cn3cncn3)cc12` [N,N-dimethyl-2-[5-(1H-1,2,4-triazol-1-ylmethyl)-1H-indol-3-yl]ethanamine], the IC50 in [1] was 49 nM; in assay [3] it was 7200 nM; in assay [4] it was 4100 nM; in [9], 16 nM.

Consider `CNS(=O)(=O)Cc1ccc2[nH]cc(CCN(C)C)c2c1` [Sumax], for which the IC50 in [4] was above 10000 nM.
